Measured values published in article PMC10388363, “Novel 1,4-Dihydropyridines as Specific Binders and Activators of SIRT3 Impair Cell Viability and Clonogenicity and Downregulate Hypoxia-Induced Targets in Cancer Cells” (Journal of Medicinal Chemistry, 2023).
Where two headings read alike, the source gives them in different places.

Legend:
MDA-MB-231 cells = test: Cell viability / cell death, trypan blue exclusion, MDA-MB-231; type: cell-based, human
CAL-62 cells = test: Cell viability / cell death, trypan blue exclusion, CAL-62; type: cell-based; details: for IC50: read-out: IC50 cell viability reduction
[1] = system: acK68- and acK122-MnSOD in CAL-62 cells; test: Western blot of MnSOD acK68 and acK122 marks in CAL-62 cells; type: cell-based; details: 50 μM, 4 h, CAL-62
Procedure: (§1) K68-MnSOD acetylation promotes a transformation-permissive phenotype, leading to a chemotherapy-resistant breast cancer cell model using cisplatin and doxorubicin.[68] […] The specific SIRT3 inhibitor 3-TYP was utilized as negative control.
(§2) Breast cancer cell line MDA-MB-231, anaplastic thyroid cancer cell line CAL-62 and human keratinocytes HaCaT were purchased from ATCC and were cultured in RPMI 1640 medium (R0883 Sigma Aldrich-MERCK) (MDA-MB-231 and CAL-62) or DMEM medium (11965092, Gibco) supplemented with 10% fetal bovine serum (Sigma-Aldrich-MERCK, F9665), 2 mM glutamine (G7513; Sigma-Aldrich-MERCK), 100 units/mL penicillin and 0.1 mg/mL streptomycin (P0781; Sigma-Aldrich-MERCK). Adherent cells were detached by Trypsin–EDTA solution (TA049; Sigma-Aldrich-MERCK). Cells were maintained at 37 °C in humidified incubator with 5% CO2. Cells were treated with […] (CoCl2) (Merck; C8661) dissolved in distilled, sterile water for 24 h to induce hypoxia (200 μM). […]
(§3) Treated and untreated cells were collected and centrifuged at 3000 rpm for 5 min. […] Protein concentration was determined by the Bradford assay (Bio-Rad; 500-0205). […] After three more washes in PBST, the detection of the relevant protein was assessed by enhanced chemiluminescence (Lite Ablot TURBO, Euro-Clone; EMP012001). […]

[2] = system: acK68- and acK122-MnSOD in MDA-MB-231 cells; test: Western blot of MnSOD acK68 and acK122 marks in MDA-MB-231 cells; type: cell-based, human; details: 4 h, MDA-MB-231
Procedure: as §1, §2
The following antibodies were used in this study: ACTB (Merck; A5316), HIF1-α (Cell Signaling; 14179), HIF2/EPAS-1 (Santa Cruz Biotechnology sc-13596), HXKII (Santa Cruz Biotechnology sc-6521), CAIX (Novus Biotechnology NB100-417), SIRT3 (Cell Signaling; 2627S), MnSOD (Abcam ab13533), MnSOD K68 (Abcam ab137037), MnSOD K122 (Abcam ab214675), peroxidase-conjugated AffiniPure Goat Anti-Rabbit IgG (H + L) (Jackson ImmunoResearch; 111-035-003), and peroxidase-conjugated AffiniPure Goat Anti-Mouse IgG (H + L) (Jackson ImmunoResearch; 115-035-062).
as §3

CCOC(=O)C1=CN(C(=O)c2cc(OC)cc(OC)c2)C=C(C(=O)OCC)C1c1ccccc1 [Compound 3d, Diethyl 1-(3,5-dimethoxybenzoyl)-4-phenyl-1,4-dihydropyridine-3,5-dicarboxylate]
viability at 5 µM (MDA-MB-231 cells; Homo sapiens, MDA-MB-231, 5 μM, 24 h, read-out: Cell viability (%) T24): 74.1%
viability at 5 µM (MDA-MB-231 cells; Homo sapiens, MDA-MB-231, 5 μM, 48 h, read-out: Cell viability (%) T48): 51.7%
viability at 10 µM (MDA-MB-231 cells; Homo sapiens, MDA-MB-231, 10 μM, 24 h, read-out: Cell viability (%) T24): 56.2%
viability at 25 µM (MDA-MB-231 cells; Homo sapiens, MDA-MB-231, 25 μM, 24 h, read-out: Cell viability (%) T24): 42.8%
viability at 25 µM (MDA-MB-231 cells; Homo sapiens, MDA-MB-231, 25 μM, 48 h, read-out: Cell viability (%) T48): 21.1%
Cell death (%) T24 (MDA-MB-231 cells; MDA-MB-231, 5 μM, 24 h): 25,9%
Cell death (%) T48 (MDA-MB-231 cells; MDA-MB-231, 5 μM, 48 h): 48,3%
Cell death (%) T24 (MDA-MB-231 cells; MDA-MB-231, 10 μM, 24 h): 43,8%
Cell death (%) T24 (MDA-MB-231 cells; MDA-MB-231, 25 μM, 24 h): 57,2%
Cell death (%) T48 (MDA-MB-231 cells; MDA-MB-231, 25 μM, 48 h): 78,8%
Cell death (%) T24 (CAL-62 cells; CAL-62, 5 μM, 24 h): 14,3%
Cell death (%) T48 (CAL-62 cells; CAL-62, 5 μM, 48 h): 21,7%
Cell death (%) T24 (CAL-62 cells; CAL-62, 10 μM, 24 h): 20,4%
Cell death (%) T24 (CAL-62 cells; CAL-62, 25 μM, 24 h): 25,6%
Cell death (%) T48 (CAL-62 cells; CAL-62, 25 μM, 48 h): 66,1%
higher efficacy in hypoxia than in normoxia (cell viability reduction and cell death induction) (CAL-62 cells; CAL-62, 48 h): 4.8 fold
IC50 (CAL-62 cells; Homo sapiens, CAL-62, 48 h, hypoxia): ~3.5 µM
IC50 (CAL-62 cells; Homo sapiens, CAL-62, 48 h, normoxia): ~16.7 µM
viability at 5 µM (CAL-62 cells; Homo sapiens, CAL-62, 5 μM, 24 h, read-out: Cell viability (%) T24): 85.7%
viability at 5 µM (CAL-62 cells; Homo sapiens, CAL-62, 5 μM, 48 h, read-out: Cell viability (%) T48): 78.3%
viability at 10 µM (CAL-62 cells; Homo sapiens, CAL-62, 10 μM, 48 h, read-out: Cell viability (%) T48): 63.5%
viability at 25 µM (CAL-62 cells; Homo sapiens, CAL-62, 25 μM, 24 h, read-out: Cell viability (%) T24): 74.4%
viability at 25 µM (CAL-62 cells; Homo sapiens, CAL-62, 25 μM, 48 h, read-out: Cell viability (%) T48): 33.8%
ratio acK68- or acK122-MnSOD/MnSOD [1]: decrease
acK122-MnSOD deacetylation ([2]; 10 μM): significant acK122 deacetylation
ratio acK68- or acK122-MnSOD/MnSOD ([2]; 50 μM): decrease
